Data reported in publication PMC10080691, “Enzyme-Responsive Double-Locked Photodynamic Molecular Beacon for Targeted Photodynamic Anticancer Therapy” (Journal of the American Chemical Society, 2023).

Tested on: HeLa cells
Experiment: Intracellular ROS generation (H2DCFDA)
Assay type: cell-based, human
Conditions: no inhibitor pretreatment, 2 μM 1 h + 6 h, light λ > 610 nm, 23 mW cm-2, 14 J cm-2
Description: The enzyme-responsive intracellular ROS generation of 1 was then examined in A549 and HeLa cells using 2′,7′-dichlorodihydrofluorescein diacetate (H2DCFDA) as the ROS fluorescent probe. Once H2DCFDA is internalized, it will be deacetylated by the intracellular esterase, followed by oxidation by the intracellular ROS, leading to the formation of the highly fluorescent 2′,7′-dichlorofluorescein (DCF).[79] The cells were first pretreated with SB-3CT (10 μM) and/or CA-074 Me (25 μM) or simply the neat medium for 2 h, followed by incubation with 1 (2 μM) for a further 1 h. As a negative control, the cells were simply incubated with 14 (2 μM) for 1 h. After being rinsed with PBS, the cells were incubated in the medium for a further 6 h. Finally, the cells were incubated with H2DCFDA (10 μM) for 30 min, followed by dark or light (λ > 610 nm, 23 mW cm^–2, 14 J cm^–2) treatment. […] It can be seen that for the MMP-2-positive A549 cells, the fluorescence due to DCF was in the following order: 1 without pretreatment of the cells with the two inhibitors > 1 with pretreatment of the cells with either one of the two inhibitors > 1 with pretreatment of the cells with both inhibitors ≈ 14. […] This trend, which reflects the extent of recovery of ROS generation, was in accord with that of the fluorescence recovery inside the cells (Figure 5c,d). For the MMP-2-negative HeLa cells, the intracellular fluorescence remained very weak even for 1 without pretreatment of the cells with the two inhibitors because of the intrinsically low MMP levels in the cells. […]
or ER-Tracker Green (Thermo Fisher Scientific Inc., E34251) (1 μM for 15 min) in a serum-free medium at 37 °C. […] All the trackers were excited at 488 nm and their fluorescence was monitored at 500−570 nm, while the DSBDP moiety was excited at 638 nm and its fluorescence was monitored at 650−750nm. The images were digitized and analyzed using a Leica Application Suite X software. […]
at 500−550 nm. The images were digitized and analyzed using a Leica Application Suite X […]

Compound: CCN(CC)c1ccc2nc3ccc(/N=N/c4ccc(N(C)CCCNC(=O)OC[C@@H]5[C@@H]6CCc7nnn(CC(=O)NCCCC[C@@H]8NC(=O)CNC(=O)[C@H](CCCCN)NC(=O)[C@H](CCCNC(=N)N)NC(=O)[C@H](C(C)C)NC(=O)CNC(=O)[C@H](CC(C)C)NC(=O)[C@@H]9CCCN9C(=O)[C@H](CCCCN)NC(=O)[C@@H](N)CSCc9cc(COc%10ccc(C%11=C%12C(C)=C(I)C(/C=C/c%13ccc(OCCOCCOCCOC)cc%13)=[N+]%12[B-](F)(F)n%12c(/C=C/c%13ccc(OCCOCCOCCOC)cc%13)c(I)c(C)c%12%11)cc%10)cc(c9)CSC[C@@H](C(N)=O)NC(=O)[C@H](CCCCN)NC(=O)[C@H](CCCCN)NC(=O)CNC(=O)[C@H](CC(C)C)NC(=O)[C@H](Cc9ccccc9)NC(=O)CNC(=O)[C@H](CCCCN)NC(=O)CNC8=O)c7CC[C@@H]65)cc4)cc3[n+](-c3ccccc3)c2c1 [compound 1]
- intracellular ROS generation (DCF fluorescence): very weak
